{
  "source": "patent US7652027B2",
  "about": "“Phenanthroindolizidine alkaloids” (National Health Research Institutes, priority 2005, dated 2010)",
  "key": {"[1]": {"system": "HONE-1 (nasopharyngeal carcinoma)", "assay": "Carcinoma cell growth inhibition (MTS assay), HONE-1", "type": "cell-based", "conditions": "72 h", "description": "(§1) Two cancer cell lines, HONE-1 (nasopharyngeal carcinoma) and NUGC-3 (gastric cancer), were maintained in DMEM medium containing 10% fetal bovine serum, seeded in 96-well plates (4500 and 6000 cells/well, respectively), and incubated under CO2 at 37° C. for 24 h. The cells were treated with at least five different concentrations of test compounds in a CO2 incubator for 72 h. The number of viable cells was estimated using the tetrazolium dye reduction assay (MTS assay) according to the protocol provided by the manufacturer (Promega, Madison, Wis., USA). The absorbance was measured at 490 nm on a Wallac 1420 VICTOR2 Multilabel counter (Perkin-Elmer, Boston, Mass.). The results of these assays were used to obtain the dose-response curves from which IC50 (nM) values were determined (an IC50 value represents the concentration (nM) of the test compound at which it produces a 50% cell growth inhibition after 3 days of incubation)."}, "NUGC-3 (gastric cancer)": {"system": "NUGC-3 (gastric cancer)", "assay": "Carcinoma cell growth inhibition (MTS assay), NUGC-3", "type": "cell-based", "conditions": "72 h", "description": "as §1"}, "COX-II": {"system": "COX-II", "assay": "COX-II level by immunoblotting", "type": "cell-based", "conditions": "immunoblotting of cell lysates", "description": "(§2) Levels of iNOS, COX-II, and β-actin (control) were measured by immunoblotting with anti-iNOS antibody (Biomol), anti-COX-II antibody (Upstate), and anti-β-actin antibody (Chemicon), respectively. The cell lysates were subjected to SDS-PAGE and the separated proteins were electrophoretically transferred to nitrocellulose membranes. The membranes were incubated, respectively, with blocking solution for 1 h, primary antibody for 2 h, and secondary antibody for 1 h. Antigen-antibody complexes were detected using ECL detection reagents (Perkin Elmer, Western Blot Chemiluminescence Reagent Plus) according to the manufacturer's instructions."}, "AP1": {"system": "AP1", "assay": "pAP 1-Luc luciferase reporter assay in LPS/IFNγ-treated RAW 264.7 (or A549) cells", "type": "cell-based", "conditions": "at the concentration higher than 1 μM; LPS (10 μg/ml)/IFNγ (20 ng/ml), 5 h", "description": "(§3) The luciferase and β-galactosidase assays were performed using a STEADY-GLO luciferase assay system (Promega) and Galacto-Star assay system (Tropix) according to the manufacturer's instructions. Luminescence was measured in a TOPCOUNT.NXT™ Microplate Scintillation and Luminescence Counter (Packard Inc.). The results were normalized to β-galactosidase activity derived from co-transfected LacZ gene under the control of a constitutive promoter.\n(§4) RAW 264.7 cells (or A549 cells) were seeded in 24-well plates (10^6 cells/well) 4-6 h before they were transfected with pNF-κB-Luc (Stratagene Corp., Calif.) (100 ng/well) and pCMV-β-gal (100 ng/well), or pAP 1-Luc (Stratagene Corp., Calif.) (200 ng/well) alone. The transfected cells were incubated for 24 h and then washed with the culture medium twice. After 18 h of incubation, the cells were treated with LPS (10 μg/ml)/IFNγ (20 ng/ml) and Compound 2 (final concentration: 0.3, 1, 3, or 10 μM) for 5 h. The cells were subjected to the luciferase and β-galactosidase assays."}, "AP 1": {"system": "AP 1", "assay": "pAP 1-Luc reporter assay in RAW264.7 cells co-transfected with pFC-MEKK", "type": "cell-based", "conditions": "at the concentration of 3 μM or higher; cells treated with LPS/IFNγ", "description": "as §4\n(§5) In a similar manner, RAW264.7 cells were transfected with pNF-κB-Luc plasmids (100 ng/well) or pAP 1-Luc (100 ng/well) as well as pFC-MEKK (Stratagene Corp., Calif.) (50 ng/well) and/or pCMV-β-gal plasmids (100 ng/well) and the transfected cells were subjected to the luciferase and β-galactosidase assays."}, "NF-κB [2]": {"system": "NF-κB", "assay": "pNF-κB-Luc luciferase reporter assay in LPS/IFNγ-treated RAW 264.7 (or A549) cells", "type": "cell-based", "description": "as §3, §4"}, "ATF-2": {"system": "ATF-2", "assay": "Phosphorylation of ATF-2 in LPS/IFNγ-treated RAW264.7 cells", "type": "cell-based"}, "iNOS": {"system": "iNOS", "assay": "iNOS level by immunoblotting", "type": "cell-based", "conditions": "immunoblotting of cell lysates", "description": "as §2"}, "c-Jun": {"system": "c-Jun", "assay": "Expression of c-Jun in LPS/IFNγ-treated RAW264.7 cells", "type": "cell-based"}, "iNOS promoter": {"system": "iNOS promoter", "assay": "iNOS promoter-luciferase reporter assay in LPS/IFNγ-treated RAW 264.7 (or A549) cells", "type": "cell-based, murine or human", "conditions": "10 μM compound; 5 μg/ml LPS, 20 ng/ml IFNγ; 18-20 h", "description": "RAW 264.7 cells (or A549 cells) were seeded in 24-well plates (9×10^4 cells/well) and grown overnight in sodium pyruvate-free DMEM with 4 mM glutamine containing 1% non-essential amino acids (Biological Industries, Israel) with antibiotics and 10% heat-inactivated fetal bovine serum or 10% fetal calf serum (Biological Industries, Israel). The cells were then co-transfected with murine or human iNOS or murine COX-II promoter-luciferase reporter plasmids (100 ng/well) and pCMV-β-gal (100 ng/well) using FuGene6 (Roche, Germany) following the protocol provided by the manufacturer. Murine iNOS promoter luciferase plasmids, human iNOS promoter-luciferase reporter plasmids (pGL3-8296), and murine COX-II promoter-luciferase reporter plasmids were generously provided by Drs. Charles J. Lowenstein (John Hopkines University), Joel Moss (National Institute of Health), and Yu-Chih Liang (Taipei Medical University), respectively. […]\nas §3, with “The results were normalized to β-galactosidase activity derived from co-transfected LacZ gene under the control of a constitutive promoter.” left out"}, "NF-κB [3]": {"system": "NF-κB", "assay": "pNF-κB-Luc reporter assay in RAW264.7 cells co-transfected with pFC-MEKK", "type": "cell-based", "conditions": "at the concentration of 3 μM or higher; cells treated with LPS/IFNγ", "description": "as §4, §5"}, "Akt": {"system": "Akt", "assay": "Phosphorylation of Akt in LPS/IFNγ-treated RAW264.7 cells", "type": "cell-based"}, "MEKK1": {"target": "T1, MEKK1 (Mus musculus, UniProt P53349)", "T1 construct": "host or cells: RAW264.7", "T1 sequence (P53349 1201-1493 limits assumed)": "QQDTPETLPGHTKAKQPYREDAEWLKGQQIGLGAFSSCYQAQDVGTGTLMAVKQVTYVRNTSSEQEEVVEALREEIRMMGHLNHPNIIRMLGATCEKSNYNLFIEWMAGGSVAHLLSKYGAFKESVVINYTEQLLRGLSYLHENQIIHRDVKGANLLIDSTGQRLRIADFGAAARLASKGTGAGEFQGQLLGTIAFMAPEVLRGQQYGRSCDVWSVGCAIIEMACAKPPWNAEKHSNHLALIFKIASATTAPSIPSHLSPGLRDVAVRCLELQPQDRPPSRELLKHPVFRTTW", "assay": "MEKK1 inhibition inferred from reporter assays in MEKK1 over-expressing RAW264.7 cells", "type": "cell-based", "conditions": "suggested by the reporter results in MEKK1 over-expressing cells", "description": "as §5"}, "TNF α": {"system": "TNF α", "assay": "TNF α protein ELISA in cell culture supernatants", "type": "cell-based", "description": "RAW 264.7 cells were seeded (70,000 cells/well) and cultured in 96-well culture plate. After 24 h incubation, the medium was replaced with one containing LPS (5 ug/ml)/IFNγ (20 ng/ml) and each of Compounds 1-4 (final concentration: 3, 5, or 6 μM) was added at different concentrations. After 18-24 h, the supernatants were subjected to the measurement of nitric oxide production using the Nitrate/Nitrite assay kit (Cayman Chemical). Nitric oxide levels were measured as the accumulation of nitrite and nitrate in the incubation medium. Nitrate was reduced to nitrite with nitrate reductase and determined spectrophotometrically with the Griess reagent at OD405. The attached cells were subjected to cytotoxicity measurement using the MTS assay.\nAn ELISA kit (R & D Systems Inc., USA) was used to measure TNF α protein in cell culture supernatants using according to the manufacturer's instructions."}},
  "data": [
    {"molecule": "COc1cc2c3c[n+]4c(cc3c3cc(OC)c(OC)c(OC)c3c2cc1OC)CCC4", "note": "[Compound 1]", "values": [
      {"measurement": "inhibition of proliferation of HONE-1 cells", "setting": "[1]", "value": "inhibited"},
      {"measurement": "inhibition of proliferation of NUGC-3 cells", "setting": "NUGC-3 (gastric cancer)", "value": "inhibited"}
    ]},
    {"molecule": "COc1cc2c3c(c4cc(OC)c(OC)cc4c2cc1OC)CN1CCC[C@H]1C3", "note": "[Compound 2]", "values": [
      {"measurement": "COX-II level", "setting": "COX-II", "value": "lowered"},
      {"measurement": "inhibition of AP 1 activity", "setting": "AP1", "value": "inhibited"},
      {"measurement": "inhibition of AP 1 activity in cells with over-expression of MEKK1", "setting": "AP 1", "value": "inhibited"},
      {"measurement": "inhibition of NF-κB activity, Compound 2 and another P13K/Akt inhibitor", "setting": "NF-κB [2]; Compound 2 and LY294002 named together, LPS/IFNγ-treated RAW264.7 cells", "value": "significantly inhibited"},
      {"measurement": "inhibition of NF-κB activity", "setting": "NF-κB [2]; tested at 0.3, 1, 3, or 10 μM, LPS (10 μg/ml)/IFNγ (20 ng/ml), 5 h, serum-free medium", "value": "not"},
      {"measurement": "phosphorylation of ATF-2", "setting": "ATF-2", "value": "enhanced"},
      {"measurement": "iNOS level", "setting": "iNOS", "value": "lowered"},
      {"measurement": "inhibition of proliferation of HONE-1 cells", "setting": "[1]", "value": "inhibited"},
      {"measurement": "expression of c-Jun", "setting": "c-Jun", "value": "inhibited"},
      {"measurement": "inhibition of proliferation of NUGC-3 cells", "setting": "NUGC-3 (gastric cancer)", "value": "inhibited"},
      {"measurement": "inhibition of iNOS promoter activity", "setting": "iNOS promoter", "value": "effectively inhibited"},
      {"measurement": "inhibition of pNF-κB activity in cells with over-expression of MEKK1", "setting": "NF-κB [3]", "value": "inhibited"},
      {"measurement": "phosphorylation of Akt", "setting": "Akt", "value": "enhanced"},
      {"measurement": "inhibition of MEKK1 activity or expression", "setting": "MEKK1", "value": "inhibited"},
      {"measurement": "inhibition of production of TNF α", "setting": "TNF α", "value": "inhibited"}
    ]},
    {"molecule": "COc1cc2c3c(c4cc(OC)c(OC)c(OC)c4c2cc1OC)[C@H](O)[C@@H]1CCC[N+]1([O-])C3", "note": "(some centres unmarked) [Compound 4]", "values": [
      {"measurement": "inhibition of proliferation of HONE-1 cells", "setting": "[1]", "value": "inhibited"},
      {"measurement": "inhibition of proliferation of NUGC-3 cells", "setting": "NUGC-3 (gastric cancer)", "value": "inhibited"},
      {"measurement": "inhibition of iNOS promoter activity", "setting": "iNOS promoter", "value": "effectively inhibited"}
    ]}
  ]
}
